Test results as given in paper PMC11225630 (Journal of Oral Microbiology, 2024).
Where a SMILES comes first, the peptide text is derived from it.

Key:
Assay in all cases: AMC release by intact cells, fluorescence
Format in all cases: cell-based
Settings in all cases: 20 uM; 50 mM phosphate, 5 mM EDTA, 100 mM NaCl, 37 C, 3 h
DPP4 = DPP4 (Porphyromonas gingivalis, UniProt B2RKU3)
DPP11 = molecular target: T1, DPP11 (Porphyromonas gingivalis, UniProt B2RID1)
T1 sequence (B2RID1 22-720): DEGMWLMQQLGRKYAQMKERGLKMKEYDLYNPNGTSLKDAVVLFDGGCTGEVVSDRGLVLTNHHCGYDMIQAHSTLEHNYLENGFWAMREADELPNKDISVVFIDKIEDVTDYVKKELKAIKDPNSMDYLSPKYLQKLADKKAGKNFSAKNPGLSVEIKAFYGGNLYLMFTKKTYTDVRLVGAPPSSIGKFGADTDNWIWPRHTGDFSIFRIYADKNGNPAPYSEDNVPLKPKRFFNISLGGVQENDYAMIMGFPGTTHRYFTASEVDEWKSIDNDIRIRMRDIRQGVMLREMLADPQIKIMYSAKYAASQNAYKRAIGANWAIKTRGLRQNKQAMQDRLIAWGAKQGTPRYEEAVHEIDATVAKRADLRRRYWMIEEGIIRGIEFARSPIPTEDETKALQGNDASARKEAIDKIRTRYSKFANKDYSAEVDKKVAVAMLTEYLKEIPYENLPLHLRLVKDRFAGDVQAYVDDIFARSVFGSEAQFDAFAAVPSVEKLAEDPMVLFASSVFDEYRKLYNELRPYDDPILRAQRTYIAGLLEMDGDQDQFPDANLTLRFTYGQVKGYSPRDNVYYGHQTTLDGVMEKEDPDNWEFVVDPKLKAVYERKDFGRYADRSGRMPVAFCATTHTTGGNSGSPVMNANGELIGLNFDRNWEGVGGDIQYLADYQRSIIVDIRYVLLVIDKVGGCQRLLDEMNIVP

DPP5 = molecular target: T2, DPP5 (Porphyromonas gingivalis, UniProt B2RIT0)
T2 sequence (B2RIT0 25-684): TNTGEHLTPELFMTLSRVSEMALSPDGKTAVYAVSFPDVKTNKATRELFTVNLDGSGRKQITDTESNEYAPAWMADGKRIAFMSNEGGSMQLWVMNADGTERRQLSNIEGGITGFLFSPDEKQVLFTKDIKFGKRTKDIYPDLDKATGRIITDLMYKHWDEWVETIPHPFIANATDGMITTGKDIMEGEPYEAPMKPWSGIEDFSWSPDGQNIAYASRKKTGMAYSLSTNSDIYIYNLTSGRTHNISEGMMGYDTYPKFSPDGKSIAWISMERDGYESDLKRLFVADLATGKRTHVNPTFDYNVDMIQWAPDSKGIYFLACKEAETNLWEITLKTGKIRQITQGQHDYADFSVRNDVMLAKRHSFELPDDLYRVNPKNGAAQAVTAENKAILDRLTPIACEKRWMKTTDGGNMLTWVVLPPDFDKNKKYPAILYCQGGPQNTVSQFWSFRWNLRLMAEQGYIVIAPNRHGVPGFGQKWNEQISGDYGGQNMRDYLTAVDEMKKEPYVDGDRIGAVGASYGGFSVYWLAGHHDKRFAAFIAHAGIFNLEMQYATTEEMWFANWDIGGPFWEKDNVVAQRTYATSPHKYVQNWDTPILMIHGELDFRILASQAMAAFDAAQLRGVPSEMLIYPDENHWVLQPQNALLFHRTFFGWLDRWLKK

Cc1cc(=O)oc2cc(NC(=O)[C@@H]3CCCN3C(=O)CN)ccc12 [Gly-Pro-MCA] (HELM PEPTIDE1{G.P.[Cc1cc(=O)oc2cc(N[*:1])ccc12]}$$$$V2.0)
AMC release by intact cells, fluorescence (DPP4): Gly-Pro-MCA (substrate of DPP4)

Cc1cc(=O)oc2cc(NC(=O)[C@H](CC(=O)O)NC(=O)[C@@H](N)CC(C)C)ccc12 [Leu-Asp-MCA] (HELM PEPTIDE1{L.D.[Cc1cc(=O)oc2cc(N[*:1])ccc12]}$$$$V2.0)
AMC release by intact cells, fluorescence (DPP11): Leu-Asp-MCA (substrate of DPP11)

Cc1cc(=O)oc2cc(NC(=O)[C@H](C)NC(=O)[C@@H](N)CCCCN)ccc12 [Lys-Ala-MCA] (HELM PEPTIDE1{K.A.[Cc1cc(=O)oc2cc(N[*:1])ccc12]}$$$$V2.0)
AMC release by intact cells, fluorescence (DPP5): Lys-Ala-MCA (substrate of DPP5)
